# In BindingDB's records for doi:10.1186/1472-6769-1-3 (Kimmel Cancer Center, 2001):
# Biological target: Bis(5'-adenosyl)-triphosphatase (Homo sapiens, UniProt P49789)
# Assay: Enzyme Inhibition Assay
# From the text: Inhibition assay using Fhit with ApppBODIPY.
# Chain of Bis(5'-adenosyl)-triphosphatase (P49789 whole entry): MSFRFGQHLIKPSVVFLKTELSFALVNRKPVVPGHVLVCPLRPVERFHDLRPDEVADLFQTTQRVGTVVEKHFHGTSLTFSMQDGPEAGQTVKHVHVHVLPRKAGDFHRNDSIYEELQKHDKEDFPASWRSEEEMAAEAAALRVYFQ
row,Ki,SMILES
1,2600 nM,"Nc1ncnc2c1ncn2C1OC(COP(=O)(S)OCCOP(O)(=S)OCC2OC(n3cnc4c(N)ncnc43)C(O)C2O)C(O)C1O (stereo unspecified) [AppppA analog, 2 (X=S)]"
2,86000 nM,"Nc1ncnc2c1ncn2C1OC(COP(=O)(S)OC(C(=O)O)C(OP(O)(=S)OCC2OC(n3cnc4c(N)ncnc43)C(O)C2O)C(=O)O)C(O)C1O (stereo unspecified) [AppppA analog, 3 (X=S)]"
3,86000 nM,"Nc1ncnc2c1ncn2C1OC(COP(=O)(S)OCC(O)C(O)COP(O)(=S)OCC2OC(n3cnc4c(N)ncnc43)C(O)C2O)C(O)C1O (stereo unspecified) [AppppA analog, 4 (X=S)]"
4,1500 nM,"Nc1ncnc2c1ncn2C1O[C@H](COP(=O)(O)OCP(O)(O)=COP(=O)(O)OCC2O[C@@H](n3cnc4c(N)ncnc43)[C@H](O)[C@@H]2O)[C@@H](O)[C@H]1O (stereo partly specified) [AppppA analog, 5 (X=O)]"
5,220 nM,"Nc1ncnc2c1ncn2C1O[C@H](COP(O)(=S)OC=P(O)(O)COP(=O)(S)OCC2O[C@@H](n3cnc4c(N)ncnc43)[C@H](O)[C@@H]2O)[C@@H](O)[C@H]1O (stereo partly specified) [AppppA analog, 5 (X=S)]"
6,4700 nM,"Nc1ncnc2c1ncn2C1O[C@H](COP(=O)(O)OCC(O)COP(=O)(O)OCC2O[C@@H](n3cnc4c(N)ncnc43)[C@H](O)C2O)[C@@H](O)[C@H]1O (stereo partly specified) [AppppA analog, 6 (X=O)]"
7,76000 nM,"CC(COP(=O)(S)OCC1OC(n2cnc3c(N)ncnc32)C(O)C1O)COP(O)(=S)OCC1OC(n2cnc3c(N)ncnc32)C(O)C1O (stereo unspecified) [AppppA analog, 7 (X=S)]"
8,3000 nM,"Nc1ncnc2c1ncn2C1OC(COP(=O)(S)OCC(N)COP(O)(=S)OCC2OC(n3cnc4c(N)ncnc43)C(O)C2O)C(O)C1O (stereo unspecified) [AppppA analog, 8 (X=S)]"
9,230 nM,"Nc1ncnc2c1ncn2C1OC(COP(=O)(S)OCCCOP(O)(=S)OCC2OC(n3cnc4c(N)ncnc43)C(O)C2O)C(O)C1O (stereo unspecified) [AppppA analog, 9 (X=S)]"
10,3300 nM,"Nc1ncnc2c1ncn2C1O[C@H](COP(=O)(S)NCCCNP(O)(=S)OCC2O[C@@H](n3cnc4c(N)ncnc43)[C@H](O)[C@@H]2O)[C@@H](O)[C@H]1O (stereo partly specified) [AppppA analog, 10 (X=S)]"
11,5200 nM,"Nc1ncnc2c1ncn2C1OC(COP(=O)(S)SCCCSP(O)(=S)OCC2OC(n3cnc4c(N)ncnc43)C(O)C2O)C(O)C1O (stereo unspecified) [AppppA analog, 11 (X=S)]"
12,1500 nM,"Nc1ncnc2c1ncn2C1OC(COP(=O)(O)OCC(COP(=O)(O)O)(COP(=O)(O)OCC2O[C@@H](n3cnc4c(N)ncnc43)[C@H](O)[C@@H]2O)COP(=O)(O)OC[C@H]2OC(n3cnc4c(N)ncnc43)[C@H](O)[C@@H]2O)[C@H](O)[C@@H]1O (stereo partly specified) [AppppA analog, 12 (X=O)]"
13,3200 nM,"Nc1ncnc2c1ncn2C1OC(COP(=O)(O)OCC(COP(=O)(O)OCC2O[C@@H](n3cnc4c(N)ncnc43)[C@H](O)[C@@H]2O)(COP(=O)(O)OCC2O[C@@H](n3cnc4c(N)ncnc43)[C@H](O)[C@@H]2O)COP(=O)(O)OC[C@H]2OC(n3cnc4c(N)ncnc43)[C@H](O)[C@@H]2O)[C@H](O)[C@@H]1O (stereo partly specified) [AppppA analog, 13 (X=O)]"
14,65 nM,"Nc1ncnc2c1ncn2C1OC(COP(=O)(S)OCC(COP(=O)(S)OCC2OC(n3cnc4c(N)ncnc43)C(O)C2O)(COP(=O)(S)OCC2OC(n3cnc4c(N)ncnc43)C(O)C2O)COP(O)(=S)OCC2OC(n3cnc4c(N)ncnc43)C(O)C2O)C(O)C1O (stereo unspecified) [AppppA analog, 13 (X=S)]"
15,900 nM,"Nc1ncnc2c1ncn2C1O[C@H](COP(=O)(O)OCC(COP(=O)(O)O)(COP(=O)(O)O)COP(=O)(O)OCC2O[C@@H](n3cnc4c(N)ncnc43)[C@H](O)[C@@H]2O)[C@@H](O)[C@H]1O (stereo partly specified) [AppppA analog, 14 (X=O)]"
16,700 nM,"Nc1ncnc2c1ncn2C1OC(COP(=O)(S)OCC(COP(=O)(O)S)(COP(=O)(O)S)COP(O)(=S)OCC2OC(n3cnc4c(N)ncnc43)C(O)C2O)C(O)C1O (stereo unspecified) [AppppA analog, 14 (X=S)]"
17,1500 nM,"Nc1ncnc2c1ncn2C1O[C@H](COP(=O)(O)OCC(COP(=O)(O)OCC2O[C@@H](n3cnc4c(N)ncnc43)[C@H](O)[C@@H]2O)OP(=O)(O)OC[C@H]2OC(n3cnc4c(N)ncnc43)[C@H](O)[C@@H]2O)[C@@H](O)[C@H]1O (stereo partly specified) [AppppA analog, 15 (X=O)]"
18,78 nM,"Nc1ncnc2c1ncn2C1OC(COP(=O)(S)OCC(COP(O)(=S)OCC2OC(n3cnc4c(N)ncnc43)C(O)C2O)OP(=O)(S)OCC2OC(n3cnc4c(N)ncnc43)C(O)C2O)C(O)C1O (stereo unspecified) [AppppA analog, 15 (X=S)]"
19,2700 nM,"Nc1ncnc2c1ncn2C1O[C@H](COP(=O)(S)NCC(CNP(O)(=S)OCC2O[C@@H](n3cnc4c(N)ncnc43)[C@H](O)[C@@H]2O)OP(=O)(S)OC[C@H]2OC(n3cnc4c(N)ncnc43)[C@H](O)[C@@H]2O)[C@@H](O)[C@H]1O (stereo partly specified) [AppppA analog, 16 (X=S)]"
20,420 nM,"Nc1ncnc2c1ncn2C1O[C@H](COP(=O)(O)OCC(COP(=O)(O)OCC2O[C@@H](n3cnc4c(N)ncnc43)[C@H](O)[C@@H]2O)OP(=O)(O)O)[C@@H](O)[C@H]1O (stereo partly specified) [AppppA analog, 17 (X=O)]"
21,110 nM,"Nc1ncnc2c1ncn2C1OC(COP(=O)(S)OCC(COP(O)(=S)OCC2OC(n3cnc4c(N)ncnc43)C(O)C2O)OP(=O)(O)S)C(O)C1O (stereo unspecified) [AppppA analog, 17 (X=S)]"
